# Legend:
# [1] = test system: mES R1 cells; experiment: Proliferation assay; assay type: cell-based, mouse; conditions: 2 μM BayK, 1 μM BIX; 15, 24, 48 hours; vs DMSO
# Protocol: mES R1 cells were plated onto gelatin-coated 6-well plates at a density of 2×10^5 cells/well in complete mES cell media. Upon cell attachment, app. 12 hours, the cells were treated either with DMSO, 1 μM BIX, 2 μM BayK, and a combination of both, in triplicate. At 15, 24 and 48 hours, the cells were detached using trypsin, and counted using a hemocytometer. Trypan blue (Sigma-Aldrich, St. Louis, Mo.) was used for dead cell exclusion.
# [2] = test system: mouse embryonic fibroblasts (129 or OG2 MEFs); experiment: Screen for iPSC generation from MEFs transduced with Oct4/Klf4 (OK); assay type: cell-based
# Protocol: Unmodified MEFs derived from E13-14 embryos of the 129 mice were used for the initial screen. MEFs were plated on Matrigel at 3.5×10^4 cells/well of a 6-well plate and transduced with OK (retroviral vectors expressing Oct4 and Klf4) alone. Within 14-21 days, treated cells were assessed for the appearance of colonies that had the characteristic embryonic stem cell (ESC) colony morphology and were positive for the pluripotency marker alkaline phosphatase (ALP). Such OK-transduced cells generated only a few small non-compact colonies, which were weakly positive for ALP expression. These colonies initially appeared within 21 days after viral transduction and were difficult to expand. Therefore, such assay system offered a clean background for the identification of small molecules having desirable reprogramming inducing activity. Using this system, compounds from a library of around 2000 known small molecules (see Experimental Procedures below) were screened and were identified as hits when they induced the appearance of ESC colonies that were strongly positive for ALP within 14-21 days after treatment. This image-based method provided a more accurate assessment of reprogramming as compared to homogenous reporter-based assay. BIX appeared to have the strongest effect with reproducible induction of more than 1-2 compact ESC-like colonies with high ALP expression. We observed that when MEFs were treated with BIX after OK viral transduction, compact colonies with strong ALP expression could be readily detected within approximately 14-21 days. These cells were also positive for Nanog, Oct4 and SSEA-1 expression. […] However, the reprogramming efficiency in MEFs transduced with OK and treated with BIX was still low, about 2 colonies/3.5×10^4 cells, in comparison to the four factor-induced reprogramming of MEFs or the OK/BIX NPC reprogramming (Shi, Y. et al., Cell Stem Cell, 2:525-528 (2008)). Therefore, we conducted a second screen using a similar protocol, but where BIX was added to the basal media after OK viral transduction. This provided a more permissive platform to identify new small molecules that could further improve reprogramming efficiency. More importantly, this second screen could facilitate discovery of small molecules that impact reprogramming in a more specific manner, for example by acting on signal transduction pathways rather than on histone or DNA modifying enzymes. In this second screen, we again assayed the library of around 2000 known small molecules (see Experimental Procedures), and confirmed two compounds that were able to act in a synergistic manner with BIX to improve reprogramming based on the criteria of the screen. […] Therefore, RG108 was not pursued further for this study. Instead, we focused our phenotypic and functional characterization on another small molecule that was identified in the second screen, BayK, an L-calcium channel agonist. […] Therefore, BayK might play a more specific role in the reprogramming process. When 129 MEFs were transduced with empty retrovirus (negative control); no colonies observed. When 129 MEFs were transduced with OK without small molecules; few small flattened colonies with weak ALP expression present. […] When OK-transduced MEFs were treated with BIX in combination with BayK, a significant increase in the number of ALP^+ colonies that closely resemble the mESC morphology could be observed (˜7 colonies) as compared to OK-transduced MEFs treated with BIX alone (˜2 colonies).
# Primary 12952/SvPasCrlf (primary screen) or ROSA26^+/−/OG2^+/− (secondary screen) MEFs were plated onto Matrigel (1:50; BD Biosciences, Bedford, Mass.) coated dishes at a density of 3.5×10^4 cells per well of a 6-well plate. Twenty-four hours later, these cells were transduced overnight with defined retroviruses at 37° C., 5% CO2. […] (all products were from Invitrogen, Carlsbad, Calif., except where mentioned). […]
# [3] = test system: primary OG2 neural progenitor cells; experiment: iPS cell induction from neural progenitor cells after retroviral transduction; assay type: cell-based, mouse
# Protocol: The reporter neural progenitor cells were generated using a well established protocol by differentiating the Oct4-GiP mESCs grown in monolayer on gelatin in a chemically defined medium/CDM condition in the absence of serum and other growth factors/cytokines at low cell density for eight days, followed by neurophere formation and subsequent serial passaging in single cells in neural cell expansion media supplemented with 10 ng/ml of bFGF and EGF in monolayer for over six passages/24 days. The resulting neural progenitor cells were homogenous by cell morphology and neural marker expression, and were confirmed to be GFP negative and puromycin sensitive. Such neural progenitor cells plated in monolayer in conventional mESC growth media were transduced with combinations of four, three, or two of the four factors, followed by treating the transduced cells with individual small molecules from a small known drug collection in a typical 6-well format. The compound treatment and culture were continued for additional ten days before puromycin was added. The number of green and puro-resistant colonies was counted at day 14. In comparison to the only four-gene transduced neural cells as the positive control, compound conditions that generated more green colonies than the corresponding gene-only conditions were picked as primary hits. To further confirm these primary hit conditions, we chose to use a late passage of mouse CNS neural progenitor cells (Do, J. T. et al., Stem Cells 25, 1013-1020 (2007)) that were derived from fetal brain of OG2^+/−/ROSA26^+/− transgenic mice (which contain an Oct4-GFP reporter) and expanded in monolayer under the same neural CDM condition as the above with 10 ng/ml of bFGF and EGF. Such cells truly from a non-pluripotent tissue would be devoid of concerns of any contaminating ES cell in the above screening system, which is highly unlikely with all appropriate controls. Similar culture conditions and reprogramming assays were performed using the OG2 neural progenitor cells except that puromycin was not used and green colonies were picked out and characterized by staining of Nanog, SSEA1 and ALP.
# mESC-derived or primary OG2 mouse neural progenitor cells were plated into Matrigel (1:50, BD Biosciences) coated 6-well plates at 3.5×10^4 cells/well in the neural progenitor cell expansion media. After one day these cells were transduced with retrovirus for overnight, and the medium was changed into the mESC growth media [DMEM, 5% FBS, 10% KSR, 1× non-essential amino acids (Gibco), 2 mM L-glutamine (Gibco), 0.1 mM β-mercaptoethanol (Gibco) and 10^3 unit/ml LIF (Chemicon)] with or without BIX01294 (0.5-1 μM). GFP-positive iPS cell colonies appeared after 9-14 days, and were picked out and expanded on MEF feeder cells with the mESC growth media.
compound,measurement,setting,value
COc1cc2nc(N3CCCN(C)CC3)nc(NC3CCN(Cc4ccccc4)CC3)c2cc1OC [BIX01294],proliferation of mES cells (cell number),[1],does not increase the proliferation of mES cells
same,reprogramming efficiency (GFP+ colonies),"[2]; OG2 MEFs transduced with OK, FIG. 3",2.5±0.7 colonies per 3.5×10^4 cells
same,number of ALP+ colonies that closely resemble the mESC morphology,"[2]; OK-transduced 129 MEFs, 14-21 days",about 2 colonies
same,appearance of GFP+ iPS cell colonies after transduction and treatment,[3]; OG2 neural progenitor cells transduced with Oct4/Klf4 retroviruses,12 days
same,kinetics of reprogramming,"[3]; Oct4/Klf4 viral transduction, BIX01294 treatment",didn't significantly shorten the kinetics of reprogramming
same,reprogramming efficiency,"[3]; Oct4/Klf4 viral transduction, BIX01294 treatment (0.5-1 μM)",significantly improve the reprogramming efficiency to or higher than the level of using viral transduction of all four factors
same,generation of iPS cells in the absence of Oct4 expression,"[3]; viral transduction of Klf4, Sox2 and cMyc with simultaneous treatment",can also generate iPS cells
